Experimental data: US11998595B2, “Telomerase polypeptide vaccine for treating cancer” (Ultimovacs AS, priority 2010, dated 2024)
“Also recorded” adds a separate entry of the source.

How the values were obtained:
[1] = test system: stage IV melanoma patients; test: Clinical course of vaccinated melanoma patients; assay type: in vivo, human; set-up: key to Clinical response: PD = Progressive disease; SD = Stable disease; PR = Partial response; CR = Complete response
Description: (§1) A comparison of the patients studied in Example 4 was carried out. In brief, seven patients were identified as clinical responders following a cancer diagnosis and vaccination with an hTERT vaccine. These patients were identified based on a combination of prolonged survival and clinical response. The clinical response could either be stable disease (SD), partial response (PR) or complete response (CR). The vaccinated melanoma patients were diagnosed with stage IV at the time of inclusion in the clinical trial, but had no brain metastases. Lung cancer patient P5 was diagnosed with stage IV, inoperable lung cancer and colon cancer patient P1 with late stage inoperable colon cancer. Lung cancer patient P6 was a stage IV lung cancer patient with a 12-week life expectancy. Pancreas cancer patient P1 had relapsed, inoperable pancreas cancer and a life expectancy of 8-10 months. Four of the patients (designated Melanoma P7-P8, Lung cancer P5 and Colon cancer P1) had each been vaccinated with the peptide GV1001 (SEQ ID NO. 10). The fifth patient (designated Lung cancer P6) and the sixth patient (designated Pancreas cancer 1) had been vaccinated with dendritic cells transfected with mRNA encoding hTERT. The seventh patient, Melanoma patient P9, had not been vaccinated at the time of the study and instead developed a spontaneous response following development of the cancer. (An eighth and final patient was also identified as a clinical responder but samples from this patient were not available for study.)
Six patients who were clinical non-responders following a melanoma cancer diagnosis and a GV1001 peptide (SEQ ID NO. 10) vaccination were studied. These patients were all stage IV melanoma patients and included in the same GV1001 vaccination trial as melanoma patients P7 and P8 who were long term survivors (see Example 6). […] Five of the patients also experienced progressive disease and one patient, designated Melanoma P3, experienced some stabilization of the disease but still had short survival. The proliferative T-cell responses of each patient to a series of peptides were determined in the same manner as in Example 1, at one time point. The peak response of each patient during the study period to peptide GV1001 is also shown which confirms that each patient responded immunologically to GV1001 vaccination.
(§2) The patients were classed as either clinical responders or clinical non-responders based on their clinical response which included stable disease (SD), tumour regression (PR or CR) and unexpectedly long survival time. Both clinical responders and clinical non-responders were selected from the same or similar vaccination trials.

[2] = test system: stage IV lung cancer patients; test: Clinical course of vaccinated lung cancer patients; assay type: in vivo, human; set-up: key to Clinical response: PD = Progressive disease; SD = Stable disease; PR = Partial response; CR = Complete response
Description: as §1
Four patients who were clinical non-responders following a lung cancer diagnosis and a GV1001 (SEQ ID NO. 10) peptide vaccination were studied. These patients were all stage IV lung cancer patients vaccinated with GV1001. […] The proliferative T-cell responses of each patient to a series of peptides were determined in the same manner as in Example 1, at one time point. The peak response of each patient during the study period to peptide GV1001 is also shown which confirms that each patient responded immunologically to GV1001 vaccination.
as §2

EARPALLTSRLRFIPK (listed as Homo sapiens) [GV1001]
Clinical Responder ([1]; patient Melanoma P1): No
Clinical response ([1]; patient Melanoma P1): PD
Survival (Months) ([1]; patient Melanoma P1): 10 Months
Vaccine-specific T cell response at time-point tested ([1]; patient Melanoma P1): Yes
Clinical Responder ([1]; patient Melanoma P2): No
Clinical response ([1]; patient Melanoma P2): PD
Survival (Months) ([1]; patient Melanoma P2): 9 Months
Vaccine-specific T cell response at time-point tested ([1]; patient Melanoma P2): Yes
Clinical Responder ([1]; patient Melanoma P3): No
Clinical response ([1]; patient Melanoma P3): SD
Survival (Months) ([1]; patient Melanoma P3): 10 Months
Vaccine-specific T cell response at time-point tested ([1]; patient Melanoma P3): Yes
Clinical Responder ([1]; patient Melanoma P4): No
Clinical response ([1]; patient Melanoma P4): PD
Survival (Months) ([1]; patient Melanoma P4): 8 Months
Vaccine-specific T cell response at time-point tested ([1]; patient Melanoma P4): Yes
Clinical Responder ([1]; patient Melanoma P5): No
Clinical response ([1]; patient Melanoma P5): PD
Survival (Months) ([1]; patient Melanoma P5): 12 Months
Vaccine-specific T cell response at time-point tested ([1]; patient Melanoma P5): Yes
Clinical Responder ([1]; patient Melanoma P6): No
Clinical response ([1]; patient Melanoma P6): PD
Survival (Months) ([1]; patient Melanoma P6): 8 Months
Vaccine-specific T cell response at time-point tested ([1]; patient Melanoma P6): Yes
Clinical Responder ([1]; patient Melanoma P7): Yes
Clinical response ([1]; patient Melanoma P7): alive, PR
Vaccine-specific T cell response at time-point tested ([1]; patient Melanoma P7): Yes
Survival (Months) ([1]; patient Melanoma P7, + signifies that the patient is still alive): 65+ Months
Clinical Responder ([1]; patient Melanoma P8): Yes
Survival (Months) ([1]; patient Melanoma P8): 21 Months
Vaccine-specific T cell response at time-point tested ([1]; patient Melanoma P8): Yes
Clinical response ([1]; patient Melanoma P8, TTP = time to progression): increased; also recorded: TTP, PR
Clinical Responder ([2]; patient Lung ca P1): No
Clinical response ([2]; patient Lung ca P1): PD
Survival (Months) ([2]; patient Lung ca P1): 14 Months
Vaccine-specific T cell response at time-point tested ([2]; patient Lung ca P1): Yes
Clinical Responder ([2]; patient Lung ca P2): No
Clinical response ([2]; patient Lung ca P2): PD
Survival (Months) ([2]; patient Lung ca P2): 6 Months
Vaccine-specific T cell response at time-point tested ([2]; patient Lung ca P2): Yes
Clinical Responder ([2]; patient Lung ca P3): No
Survival (Months) ([2]; patient Lung ca P3): 20 Months
Vaccine-specific T cell response at time-point tested ([2]; patient Lung ca P3): Yes
Clinical Responder ([2]; patient Lung ca P4): No
Survival (Months) ([2]; patient Lung ca P4): 10 Months
Vaccine-specific T cell response at time-point tested ([2]; patient Lung ca P4): Yes
Clinical Responder ([2]; patient Lung ca P5): Yes
Clinical response ([2]; patient Lung ca P5): alive, CR
Vaccine-specific T cell response at time-point tested ([2]; patient Lung ca P5): Yes
Survival (Months) ([2]; patient Lung ca P5, + signifies that the patient is still alive): 106+ Months
